Experimental data taken from US7208496B2, “Substituted heterocyclic compounds” (CV Therapeutics, Inc., priority 2003, dated 2007).
pIC50: −log10 of the molar value.

Test system: Palmitoyl CoA oxidation in rat heart mitochondria
Assay: Palmitoyl CoA oxidation assay (mitochondrial assay, Example 16)
Assay type: biochemical
Settings: 16 microM 1-C14 palmitoyl CoA, 15 min at 30° C., read-out: IC value, Palmitoyl CoA oxidation
Protocol: Rat heart mitochondria are isolated by the method of Nedergard and Cannon (Methods in Enzymol. 55, 3, 1979).
Palmitoyl CoA oxidation—The Palmityl CoA oxidation is carried out in a total volume of 100 micro liters containing the following agents: 110 mM KCl, 33 mM Tris buffer at pH 8, 2 mM KPi, 2 mM MgCl2, 0.1 mM EDTA, 14.7 microM defatted BSA, 0.5 mM malic acid, 13 mM carnitine, 1 mM ADP, 52 micrograms of mitochondrial protein, and 16 microM 1-C14 palmitoyl CoA (Sp. Activity 60 mCi/mmole; 20 microCi/ml, using 5 microliters per assay). The compounds of this invention are added in a DMSO solution at the following concentrations: 100 micro molar, 30 micro molar, and 3 micro molar. In each assay, a DMSO control is used. After 15 min at 30° C., the enzymatic reaction is centrifuged (20,000 g for 1 min), and 70 microliters of the supernatant is added to an activated reverse phase silicic acid column (approximately 0.5 ml of silicic acid). The column is eluted with 2 ml of water, and 0.5 ml of the eluent is used for scintillation counting to determine the amount of C^14 trapped as C^14 bicarbonate ion.

pIC50: 5.59
Substance: {(3S)-4-[(2R)-2-hydroxy-3-(2-methylbenzothiazol-5-yloxy)propyl]-3-methylpiperazinyl}-N-(9-ethylcarbazol-3-yl)carboxamide
